Values of other authors as cited in patent publication US20190151294A1, “TREATMENT OF ALCOHOLISM AND DEPRESSION AND/OR DYSPHORIC MOOD USING IBUDILAST” (MEDICINOVA, INC., priority 2016, published 2019).

Tested on: P and HAD1 rats and mouse model of ethanol dependence
Conditions: in these models of elevated alcohol intake; cited from earlier work

SMILES | selective reduction of ethanol drinking
CC[C@@H](C(N)=O)N1CCCC1=O [levatiracetam] | do not selectively reduce ethanol drinking
OCCOCCN1CCN(C2=Nc3ccccc3Sc3ccccc32)CC1 [quetiapine] | do not selectively reduce ethanol drinking
